Test results taken from patent US20220195455A1, “DELIVERY OF CRISPR/MCAS9 THROUGH EXTRACELLULAR VESICLES FOR GENOME EDITING” (University of Georgia Research Foundation, Inc., priority 2019, published 2022).

Experiments:
[1] = system: PC3 cells; experiment: Lipid raft disruption, cholesterol staining; assay type: cell-based, human; settings: 1 μM, 24 h
Description: PC3 cells were treated with vehicle control or 1 μM Filipin for 24 h. The treated cells were visualized under a fluorescence microscope. The treated cells were stained with Filipin III and representative images were taken.

[2] = system: PC3 or DU145 cells; experiment: Lipid raft disruption, Src kinase in EVs by immunoblotting; assay type: cell-based, human; settings: 0-1 μM, 24 h
Description: PC3 and DU145 cells were grown overnight. The medium was replaced with the same growth medium but containing EVs/exosome-free FBS with DMSO (control) or Filipin III (0-1 μM) for 24 h to disrupt lipid rafts. The EVs were isolated from the conditioned medium by sequential centrifugation as described above. The isolated EVs and cells were lysed with RIPA buffer for immunoblotting analysis.

[3] = system: DU145, NIH 3T3, SYF1, 22Rv1 cells; experiment: Encapsulation of Src family kinase variants into EVs of transduced cells (Western blot, EVs vs TCL); assay type: cell-based; settings: for levels of Fyn kinase in EVs: in comparison with Fyn(WT)
Description: The transfected cells were grown in exosome-free FBS medium and EVs were isolated from the conditioned medium. […] Ten μg of protein from EVs or TCL were loaded. Src protein levels were quantified by Image J software. […] Data were expressed as mean±SEM, ** p<0.01; *** p<0.001. […] The transduced cells were grown in EVs/exosome-free FBS medium with (Lane 4-6 and 10-12) or without (Lane 1-3 and 7-9) 50 μM myristic acid-azide (an analog of myristic acid). The myristoylated proteins from either EVs or TCL were detected using Click chemistry. Ten μg of protein from EVs or TCL were loaded.
EVs were isolated from conditioned medium by sequential ultracentrifugation. […] Ten μg of protein from EVs or TCL were loaded. […] Coomassie staining was used to show equivalent loading of samples. The Src expression level was quantified by Image J software. Data are expressed as mean±SEM, * p<0.05; ** p<0.01; *** p<0.001.
The transduced cells were grown in EVs/exosome-free medium for 24 h and EVs were isolated from the conditioned medium. Ten μg of protein from extracellular vesicles (EVs) or total cell lysates (TCL) were loaded. […] Data are expressed as mean±SEM. * p<0.05; **** p<0.0001; NS: Not significant.
The transduced cells were grown in exosome-free FBS medium. EVs were collected from the conditioned cell culture medium. Expression levels of Src in extracellular vesicles (EVs) and total cell lysates (TCL) from the transduced cells were evaluated by Western blotting. 10 μg of protein from Exo or TCL were loaded. […] The Src protein was quantified by Image J software. […] Data are expressed as mean±SEM. ** p<0.01.
To isolate EVs from the cell culture medium, the cell lines were grown in ATCC recommended medium in a 150-mm petri-dish. […] The size, zeta potential, and concentration of EVs were measured by nanoparticle tracking analysis (NTA, Particle Metrix, Germany) with ZetaView software for data record and analysis.
The total cell lysate and EVs dissolved in RIPA buffer were subjected to the standard immunoblotting analysis. […] The band intensity was quantified by Image J software.

[4] = biological target: T1, full length NMT1 protein (Homo sapiens, UniProt P30419); experiment: NMT1 activity assay (CoA release, fluorescence); assay type: biochemical; settings: octapeptide as NMT1 substrate;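 also: released CoA from NMT1-catalysed myristoylation of octapeptide substrates detected by fluorescence after reaction with a maleimide coumarin dye (excitation 390 nm, emission 479 nm), triplicate points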
T1 construct: Km and Vmax catalyzed by full length NMT1 protein were calculated
T1 sequence (P30419 1-496): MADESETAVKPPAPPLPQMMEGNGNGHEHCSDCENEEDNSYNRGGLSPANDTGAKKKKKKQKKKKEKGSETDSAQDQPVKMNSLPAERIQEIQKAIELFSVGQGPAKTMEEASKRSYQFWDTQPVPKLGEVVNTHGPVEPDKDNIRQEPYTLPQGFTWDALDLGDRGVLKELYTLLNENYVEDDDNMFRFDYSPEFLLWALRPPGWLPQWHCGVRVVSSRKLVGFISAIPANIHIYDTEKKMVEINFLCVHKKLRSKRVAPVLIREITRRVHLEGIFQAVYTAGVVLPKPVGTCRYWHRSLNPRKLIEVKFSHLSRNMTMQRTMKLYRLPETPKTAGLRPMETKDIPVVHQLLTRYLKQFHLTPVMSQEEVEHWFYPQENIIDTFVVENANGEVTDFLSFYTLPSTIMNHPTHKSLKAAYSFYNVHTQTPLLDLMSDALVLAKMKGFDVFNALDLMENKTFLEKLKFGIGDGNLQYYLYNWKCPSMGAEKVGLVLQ
Description: The amount of the released CoA were reacted with 7-diethylamino-3-(4′-maleimidylphenyl)-4-methylcoumarin. The assay was performed in 96-well black microplates. The produced fluorescence intensity was measured by Flex Station 3, and detected by microplate reader (excitation at 390 nm; emission at 479 nm).
The amount of the released CoA were reacted with 7-diethylamino-3-(4′-maleimidylphenyl)-4-methylcoumarin. The assay was performed in 96-well black microplates. The produced fluorescence intensity was measured by Flex Station 3, and detected by microplate reader (excitation at 390 nm; emission at 479 nm). To measure the Km and Vmax of NMT1 which catalyzed various octapeptides substrates derived from various proteins, twenty-five octapeptides were synthesized by GenScript. […] Each data point has three repeats.
Km and Vmax catalyzed by full length NMT1 protein were calculated.

Row | Compound | levels of Fyn kinase in EVs [3] | Km [4] [µM] | Vmax [4] [µM/min] | other results
1 | CCCCC[C@@H](O)[C@H]1C(=O)O[C@H](C)[C@@H](O)/C=C/C=C/C=C/C=C/C=C(\C)[C@@H](O)C[C@H](O)C[C@H](O)C[C@H](O)C[C@H](O)C[C@H](O)C[C@@H]1O [Filipin III] |  |  |  | cholesterol levels [1]: significantly decreased; expression levels of Src kinase in EVs [2]: did not significantly change
2 | Fyn(C3S/C6S): Fyn mutant with loss of palmitoylation (GSVQSK) | significantly increased |  |  | 
3 | Fyn(G2A): Fyn mutant with loss of myristoylation (ACVQCK) | significantly inhibited |  |  | 
4 | Fyn(WT): wild type Fyn kinase (GCVQCK) |  |  |  | levels of kinase in EVs in comparison with total cell lysate [3]: decreased
5 | GQSQSGGH (SEQ ID NO: 364) [PSMC1] |  | 40 | 9.6 | 
6 | GSCCSCPD (SEQ ID NO: 370) [FRS2] |  | 28.2 | 54.7 | 
